Source: PMC8368996, “Interactions between AMOT PPxY motifs and NEDD4L WW domains function in HIV-1 release” (The Journal of Biological Chemistry, 2021)
Peptide text beside a SMILES is read from it. * marks the point of attachment. X1 = O=C1OC2(c3cc(F)c(O)cc3Oc3cc(O)c(F)cc32)c2ccc(N3C(=O)CC(*)C3=O)cc21

Target: T1, NEDD4L WW3 (Homo sapiens, UniProt Q96PU5)
T1 construct: -WW3(497 -530); GST (N, cleaved yes); made in house; host or cells: E. coli Rosetta-pLysS
Test: Fluorescence polarization (FP) anisotropy binding of labeled AMOT PPxY peptides to recombinant NEDD4L WW3 domain
Details: for fold reduction of NEDD4L WW3 binding affinity relative to the wt peptide: FP Kd ratio mutant / wt
Description: Each dilution series was performed at least in triplicate. […] The mean Kd values are reported as mean ± SEM.

T1 sequence (Q96PU5 497-530 limits assumed): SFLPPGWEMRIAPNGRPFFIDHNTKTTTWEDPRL

Row | SMILES | fold reduction of NEDD4L WW3 binding affinity relative to the wt peptide [fold] | fold tighter binding than any other pairwise AMOT PPxY-NEDD4L WW interaction (PPxY1-WW3 compared with the 11 other pairs of Fig. 3E)
1 | CSCC[C@H](NC(=O)CNC(=O)[C@H](CCCCN)NC(=O)[C@H](Cc1ccccc1)NC(=O)[C@@H]1CCCN1C(=O)[C@H](Cc1ccc(O)cc1)NC(=O)[C@H](CCC(=O)O)NC(=O)[C@@H]1CCCN1C(=O)[C@H](CC(C)C)NC(=O)[C@@H]1CCCN1C(=O)CNC(=O)[C@H](CCCNC(=N)N)NC(=O)[C@H](Cc1c[nH]cn1)NC(=O)[C@H](CCC(=O)O)NC(=O)[C@H](CCSC)NC(=O)[C@@H](N)CSC1CC(=O)N(c2ccc3c(c2)C(=O)OC32c3cc(F)c(O)cc3Oc3cc(O)c(F)cc32)C1=O)C(N)=O (stereo partly shown) [(P/L)PPxY2] (H-C(X1)MEHRGPLPEYPFKGM-NH2; N-terminus and C-terminus assumed) | 2.8 | 
2 | CSCC[C@H](NC(=O)[C@@H](N)CSC1CC(=O)N(c2ccc3c(c2)C(=O)OC32c3cc(F)c(O)cc3Oc3cc(O)c(F)cc32)C1=O)C(=O)N[C@@H](CCC(N)=O)C(=O)N[C@@H](CC(N)=O)C(=O)N[C@@H](CC(N)=O)C(=O)N[C@@H](CCC(=O)O)C(=O)N[C@@H](CCC(=O)O)C(=O)N[C@@H](CC(C)C)C(=O)N1CCC[C@H]1C(=O)N[C@H](C(=O)N[C@@H](Cc1ccc(O)cc1)C(=O)N[C@@H](CCC(=O)O)C(=O)N[C@@H](CCC(=O)O)C(=O)N[C@@H](CCCCN)C(=O)N[C@@H](CCCCN)C(=O)N[C@H](C(N)=O)C(C)C)[C@@H](C)O (stereo partly shown) [A112K] (H-C(X1)MQNNEELPTYEEKKV-NH2; N-terminus and C-terminus assumed) | 8 | 
3 | CSCC[C@H](NC(=O)[C@@H](N)CSC1CC(=O)N(c2ccc3c(c2)C(=O)OC32c3cc(F)c(O)cc3Oc3cc(O)c(F)cc32)C1=O)C(=O)N[C@@H](CCC(N)=O)C(=O)N[C@@H](CC(N)=O)C(=O)N[C@@H](CC(N)=O)C(=O)N[C@@H](CCCCN)C(=O)N[C@@H](CCCCN)C(=O)N[C@@H](CC(C)C)C(=O)N1CCC[C@H]1C(=O)N[C@H](C(=O)N[C@@H](Cc1ccc(O)cc1)C(=O)N[C@@H](CCC(=O)O)C(=O)N[C@@H](CCC(=O)O)C(=O)N[C@@H](C)C(=O)N[C@@H](CCCCN)C(=O)N[C@H](C(N)=O)C(C)C)[C@@H](C)O (stereo partly shown) [E104K/E105K] (H-C(X1)MQNNKKLPTYEEAKV-NH2; N-terminus and C-terminus assumed) | 6 | 
4 | CSCC[C@H](NC(=O)[C@@H](N)CSC1CC(=O)N(c2ccc3c(c2)C(=O)OC32c3cc(F)c(O)cc3Oc3cc(O)c(F)cc32)C1=O)C(=O)N[C@@H](CCC(N)=O)C(=O)N[C@@H](CC(N)=O)C(=O)N[C@@H](CC(N)=O)C(=O)N[C@@H](CCC(=O)O)C(=O)N[C@@H](CCC(=O)O)C(=O)N[C@@H](CC(C)C)C(=O)N1CCC[C@H]1C(=O)N[C@H](C(=O)N[C@@H](Cc1ccc(O)cc1)C(=O)N[C@@H](CCC(=O)O)C(=O)N[C@@H](CCC(=O)O)C(=O)N[C@@H](C)C(=O)N[C@@H](CCCCN)C(=O)N[C@H](C(N)=O)C(C)C)[C@@H](C)O (stereo partly shown) [PPxY1] (H-C(X1)MQNNEELPTYEEAKV-NH2; N-terminus and C-terminus assumed) |  | more than 5 fold
